Measured values published in US20060252807A1, “Novel ortho-terphenyl inhibitors of p38 kinase and methods of treating inflammatory disorders” (Kalypsys, Inc., priority 2005, published 2006).

Target: T1, active p38 alpha enzyme (Upstate Biotechnology) (Homo sapiens, UniProt Q16539)
T1 construct: purchased Upstate Biotechnology
Assay: p38α biochemical assay (ATP turnover, luminescent detection, Cambrex PKlight)
Details: p38α kinase; Table 1 Biological Activity
Method in brief: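 Luminescent PKlight readout of total ATP consumption follows a 2 h, 30C kinase reaction. Enzyme and MapkapK2 substrate run with 1.4 uM ATP (final) in buffer containing Mg2+, Ca2+, chelators, glycerol, reducing agent and BSA; test compounds added by pintool from DMSO.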

T1 sequence (Q16539 whole entry): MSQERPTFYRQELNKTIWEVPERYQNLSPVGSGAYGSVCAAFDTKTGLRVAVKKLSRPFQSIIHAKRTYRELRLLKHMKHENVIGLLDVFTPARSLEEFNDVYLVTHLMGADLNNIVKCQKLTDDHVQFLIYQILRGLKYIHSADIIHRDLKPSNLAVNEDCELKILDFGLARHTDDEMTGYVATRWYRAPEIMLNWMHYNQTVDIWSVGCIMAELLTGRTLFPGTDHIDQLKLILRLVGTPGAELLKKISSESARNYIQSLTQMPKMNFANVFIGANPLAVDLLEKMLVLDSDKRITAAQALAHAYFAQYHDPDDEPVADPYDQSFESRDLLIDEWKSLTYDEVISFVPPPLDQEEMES

SMILES | IC50 [µM]
CC(C)NC(=O)c1csc(-c2c(-c3ccc(F)cc3)n[nH]c2C2CCN(C(=O)c3cccc(C#N)c3)CC2)n1 [Example 844] | > 1
CC(C)NC(=O)c1csc(-c2c(-c3ccc(F)cc3)n[nH]c2C2CCN(C(=O)/C=C/c3ccccc3)CC2)n1 [Example 845] | > 1
CC(C)NC(=O)c1csc(-c2c(-c3ccc(F)cc3)n[nH]c2C2CCN(C(=O)c3ccccc3C=O)CC2)n1 [Example 846] | ≤ 1
CC(C)NC(=O)c1csc(-c2c(-c3ccc(F)cc3)n[nH]c2C2CCN(C(=O)c3ccc(C=O)cc3)CC2)n1 [Example 847] | ≤ 1
Cc1ccc(C(=O)N2CCC(c3[nH]nc(-c4ccc(F)cc4)c3-c3nc(C(=O)NC(C)C)cs3)CC2)c(C)c1 [Example 848] | > 1
Cc1ccccc1CC(=O)N1CCC(c2[nH]nc(-c3ccc(F)cc3)c2-c2nc(C(=O)NC(C)C)cs2)CC1 [Example 849] | > 1
Cc1cccc(C(=O)N2CCC(c3[nH]nc(-c4ccc(F)cc4)c3-c3nc(C(=O)NC(C)C)cs3)CC2)c1C [Example 850] | > 1
Cc1ccc(C)c(C(=O)N2CCC(c3[nH]nc(-c4ccc(F)cc4)c3-c3nc(C(=O)NC(C)C)cs3)CC2)c1 [Example 851] | > 1
Cc1cc(C)cc(C(=O)N2CCC(c3[nH]nc(-c4ccc(F)cc4)c3-c3nc(C(=O)NC(C)C)cs3)CC2)c1 [Example 852] | > 1
Cc1ccc(C(=O)N2CCC(c3[nH]nc(-c4ccc(F)cc4)c3-c3nc(C(=O)NC(C)C)cs3)CC2)cc1C [Example 853] | > 1
CCc1ccc(C(=O)N2CCC(c3[nH]nc(-c4ccc(F)cc4)c3-c3nc(C(=O)NC(C)C)cs3)CC2)cc1 [Example 854] | > 1
COc1ccc(C(=O)N2CCC(c3[nH]nc(-c4ccc(F)cc4)c3-c3nc(C(=O)NC(C)C)cs3)CC2)cc1 [Example 855] | > 1
Cc1cccc(C(=O)N2CCC(c3[nH]nc(-c4ccc(F)cc4)c3-c3nc(C(=O)NC(C)C)cs3)CC2)c1O [Example 856] | > 1
CC(C)NC(=O)c1csc(-c2c(-c3ccc(F)cc3)n[nH]c2C2CCN(C(=O)Cc3ccccc3O)CC2)n1 [Example 857] | ≤ 1
CC(C)NC(=O)c1csc(-c2c(-c3ccc(F)cc3)n[nH]c2C2CCN(C(=O)Cc3cccc(O)c3)CC2)n1 [Example 858] | > 1
Cc1ccc(O)c(C(=O)N2CCC(c3[nH]nc(-c4ccc(F)cc4)c3-c3nc(C(=O)NC(C)C)cs3)CC2)c1 [Example 859] | > 1
CC(C)NC(=O)c1csc(-c2c(-c3ccc(F)cc3)n[nH]c2C2CCN(C(=O)c3cc(O)ccc3O)CC2)n1 [Example 860] | > 1
CC(C)NC(=O)c1csc(-c2c(-c3ccc(F)cc3)n[nH]c2C2CCN(C(=O)c3cccc(O)c3O)CC2)n1 [Example 861] | > 1

SMILES | IC50 [µM]
CC(C)NC(=O)c1csc(-c2c(-c3ccc(F)cc3)n[nH]c2C2CCN(C(=O)c3ccc(O)cc3O)CC2)n1 [Example 862] | > 1
Cc1ccc(C(=O)N2CCC(c3[nH]nc(-c4ccc(F)cc4)c3-c3nc(C(=O)NC(C)C)cs3)CC2)cc1F [Example 863] | > 1
Cc1ccc(F)cc1C(=O)N1CCC(c2[nH]nc(-c3ccc(F)cc3)c2-c2nc(C(=O)NC(C)C)cs2)CC1 [Example 864] | > 1
CC(C)NC(=O)c1csc(-c2c(-c3ccc(F)cc3)n[nH]c2C2CCN(C(=O)c3ccccc3Cl)CC2)n1 [Example 865] | > 1
CC(C)NC(=O)c1csc(-c2c(-c3ccc(F)cc3)n[nH]c2C2CCN(C(=O)c3ccc(Cl)nc3)CC2)n1 [Example 866] | > 1
CC(C)NC(=O)c1csc(-c2c(-c3ccc(F)cc3)n[nH]c2C2CCN(C(=O)c3cccnc3Cl)CC2)n1 [Example 867] | ≤ 1
CC(C)NC(=O)c1csc(-c2c(-c3ccc(F)cc3)n[nH]c2C2CCN(C(=O)c3ccnc(Cl)c3)CC2)n1 [Example 868] | ≤ 1
CC(C)NC(=O)c1csc(-c2c(-c3ccc(F)cc3)n[nH]c2C2CCN(C(=O)c3cc(Cl)ccn3)CC2)n1 [Example 869] | ≤ 1
CC(C)NC(=O)c1csc(-c2c(-c3ccc(F)cc3)n[nH]c2C2CCN(C(=O)c3ccncc3Cl)CC2)n1 [Example 870] | ≤ 1
CC(C)NC(=O)c1csc(-c2c(-c3ccc(F)cc3)n[nH]c2C2CCN(C(=O)c3c(F)cccc3F)CC2)n1 [Example 871] | > 1
CC(C)NC(=O)c1csc(-c2c(-c3ccc(F)cc3)n[nH]c2C2CCN(C(=O)c3cccc(F)c3F)CC2)n1 [Example 872] | > 1
CC(C)NC(=O)c1csc(-c2c(-c3ccc(F)cc3)n[nH]c2C2CCN(C(=O)c3ccc(F)cc3F)CC2)n1 [Example 873] | > 1
CC(C)NC(=O)c1csc(-c2c(-c3ccc(F)cc3)n[nH]c2C2CCN(C(=O)c3cc(F)cc(F)c3)CC2)n1 [Example 874] | > 1
CC(C)NC(=O)c1csc(-c2c(-c3ccc(F)cc3)n[nH]c2C2CCN(C(=O)c3ccc(F)c(F)c3)CC2)n1 [Example 875] | > 1
CC(CC(=O)N1CCC(c2[nH]nc(-c3ccc(F)cc3)c2-c2nc(C(=O)NC(C)C)cs2)CC1)CC(C)(C)C (stereo not shown) [Example 876] | > 1
CC(C)NC(=O)c1csc(-c2c(-c3ccc(F)cc3)n[nH]c2C2CCN(C(=O)c3cc4ccccc4o3)CC2)n1 [Example 877] | > 1
CC(C)NC(=O)c1csc(-c2c(-c3ccc(F)cc3)n[nH]c2C2CCN(C(=O)C3CCc4ccccc43)CC2)n1 (stereo not shown) [Example 878] | > 1
CC(C)NC(=O)c1csc(-c2c(-c3ccc(F)cc3)n[nH]c2C2CCN(C(=O)C(Cl)(Cl)Cl)CC2)n1 [Example 879] | > 1

Second part, the compound after the results:

IC50 [µM] | SMILES
> 1 | CC(C)NC(=O)c1csc(-c2c(-c3ccc(F)cc3)n[nH]c2C2CCN(C(=O)/C=C/c3ccccc3O)CC2)n1 [Example 880]
> 1 | CC(=O)c1ccc(C(=O)N2CCC(c3[nH]nc(-c4ccc(F)cc4)c3-c3nc(C(=O)NC(C)C)cs3)CC2)cc1 [Example 881]
> 1 | CC(C)NC(=O)c1csc(-c2c(-c3ccc(F)cc3)n[nH]c2C2CCN(C(=O)/C=C/c3cccc(O)c3)CC2)n1 [Example 882]
> 1 | CC(=O)c1cccc(C(=O)N2CCC(c3[nH]nc(-c4ccc(F)cc4)c3-c3nc(C(=O)NC(C)C)cs3)CC2)c1 [Example 883]
> 1 | CC(=O)c1ccccc1C(=O)N1CCC(c2[nH]nc(-c3ccc(F)cc3)c2-c2nc(C(=O)NC(C)C)cs2)CC1 [Example 884]
> 1 | CC(C)NC(=O)c1csc(-c2c(-c3ccc(F)cc3)n[nH]c2C2CCN(C(=O)c3ccc(C(C)C)cc3)CC2)n1 [Example 885]
> 1 | Cc1ccccc1CCC(=O)N1CCC(c2[nH]nc(-c3ccc(F)cc3)c2-c2nc(C(=O)NC(C)C)cs2)CC1 [Example 886]
> 1 | Cc1cccc(CCC(=O)N2CCC(c3[nH]nc(-c4ccc(F)cc4)c3-c3nc(C(=O)NC(C)C)cs3)CC2)c1 [Example 887]
> 1 | CCC(C(=O)N1CCC(c2[nH]nc(-c3ccc(F)cc3)c2-c2nc(C(=O)NC(C)C)cs2)CC1)c1ccccc1 (stereo not shown) [Example 888]
> 1 | CCCc1ccc(C(=O)N2CCC(c3[nH]nc(-c4ccc(F)cc4)c3-c3nc(C(=O)NC(C)C)cs3)CC2)cc1 [Example 890]
> 1 | CC(C)NC(=O)c1csc(-c2c(-c3ccc(F)cc3)n[nH]c2C2CCN(C(=O)c3ccc4c(c3)OCO4)CC2)n1 [Example 891]
> 1 | CC(C)NC(=O)c1csc(-c2c(-c3ccc(F)cc3)n[nH]c2C2CCCN(C(=O)/C=C/c3ccccc3F)CC2)n1 (stereo not shown) [Example 892]
> 1 | CCOc1ccccc1C(=O)N1CCC(c2[nH]nc(-c3ccc(F)cc3)c2-c2nc(C(=O)NC(C)C)cs2)CC1 [Example 893]
> 1 | Cc1ccccc1OCC(=O)N1CCC(c2[nH]nc(-c3ccc(F)cc3)c2-c2nc(C(=O)NC(C)C)cs2)CC1 [Example 894]
> 1 | CC(C)NC(=O)c1csc(-c2c(-c3ccc(F)cc3)n[nH]c2C2CCN(C(=O)CCc3ccccc3O)CC2)n1 [Example 895]
> 1 | COc1ccccc1CC(=O)N1CCC(c2[nH]nc(-c3ccc(F)cc3)c2-c2nc(C(=O)NC(C)C)cs2)CC1 [Example 896]
> 1 | CC(C)NC(=O)c1csc(-c2c(-c3ccc(F)cc3)n[nH]c2C2CCN(C(=O)C(C)c3ccc(O)cc3)CC2)n1 (stereo not shown) [Example 897]
> 1 | CC(C)NC(=O)c1csc(-c2c(-c3ccc(F)cc3)n[nH]c2C2CCN(C(=O)c3ccccc3[N+](=O)[O-])CC2)n1 [Example 898]
> 1 | CC(C)NC(=O)c1csc(-c2c(-c3ccc(F)cc3)n[nH]c2C2CCN(C(=O)c3cccc([N+](=O)[O-])c3)CC2)n1 [Example 899]
> 1 | COc1cccc(O)c1C(=O)N1CCC(c2[nH]nc(-c3ccc(F)cc3)c2-c2nc(C(=O)NC(C)C)cs2)CC1 [Example 900]
> 1 | COc1ccc(O)c(C(=O)N2CCC(c3[nH]nc(-c4ccc(F)cc4)c3-c3nc(C(=O)NC(C)C)cs3)CC2)c1 [Example 901]
> 1 | COc1ccc(C(=O)N2CCC(c3[nH]nc(-c4ccc(F)cc4)c3-c3nc(C(=O)NC(C)C)cs3)CC2)c(O)c1 [Example 902]
> 1 | COc1ccc(C(=O)N2CCC(c3[nH]nc(-c4ccc(F)cc4)c3-c3nc(C(=O)NC(C)C)cs3)CC2)cc1O [Example 903]
≤ 1 | CC(C)NC(=O)c1csc(-c2c(-c3ccc(F)cc3)n[nH]c2C2CCN(C(=O)c3cc(O)c(O)c(O)c3)CC2)n1 [Example 904]
> 1 | CC(C)NC(=O)c1csc(-c2c(-c3ccc(F)cc3)n[nH]c2C2CCN(C(=O)Cc3ccc(O)c(F)c3)CC2)n1 [Example 905]
> 1 | Cc1cc(C(=O)N2CCC(c3[nH]nc(-c4ccc(F)cc4)c3-c3nc(C(=O)NC(C)C)cs3)CC2)cc(Cl)n1 [Example 906]
> 1 | CC(C)NC(=O)c1csc(-c2c(-c3ccc(F)cc3)n[nH]c2C2CCN(C(=O)Cc3c(F)cccc3F)CC2)n1 [Example 907]
≤ 1 | CC(C)NC(=O)c1csc(-c2c(-c3ccc(F)cc3)n[nH]c2C2CCN(C(=O)c3cccc4ccccc34)CC2)n1 [Example 908]
